Data set [1] deals with PDAC PDO model T031P. Put plainly: In vitro organoid formation assay (CellTiter-Glo 3D). The settings on record: Homo sapiens, T031P, treated 24 hr post-plating. The format is cell-based. How it is done:
Patient derived organoids were established as previously described. Briefly, PDX tumor chunks were minced then enzymatically digested into single cells by using a tumor dissociation Kit (Miltenyi, Cat# 130-095-929). Mouse and human cells were separated through magnetic separation, and isolated tumor cells were cultured on Matrigel-coated dishes. Organoid cultures were maintained by growing on Matrigel in human complete maintenance media: Advanced DMEM/F12 media (Life Technology, Cat# 12634028), 10 mM HEPES (Life Technology, Cat# 15630–080), 1X Glutamax (Life Technology, Cat# 35050–061), 1X Antibiotic-Antimycotic (Life Technology, Cat# 15240–062), 10 mM Nicotinamide (Sigma-Aldrich, Cat# N0636-500G), 250 ng/mL R-Spondin-1 (Peprotech, Cat# 120–38), 100 ng/mL Noggin (Peprotech, Cat# 120-10C), 50 ng/mL EGF (Peprotech, Cat# AF-100-15), 100 ng/mL FGF10 (Peprotech, Cat# 100–26), […] (Sigma-Aldrich, Cat# G9020), 500 nM A83-01 (Sigma, Cat# SML0788), 20 μM Y-27632 (LC Laboratories, Cat# Y-5301), 1X B27 (Life Technology, Cat# 12587010), 10 ng/mL Wnt3a (R&D Systems, Cat# 5036-WN-010), 0.1% Methylcelluose (R&D Systems, Cat# HSC001) and Plasmocin (Invivogen, Cat# Ant-mpp) and were passaged every 10–14 days. Organoids were isolated from Matrigel (Corning, Cat# 08-774-406) in a cell recovery solution (Corning, Cat# CB-40253). Spheroid clusters were then dissociated into a single cell suspension with TrypLE (Gibco, Cat# 12605). […]
(§1) Organoids were isolated and dissociated as described above. Cell numbers were counted by trypan blue exclusion and 5000 cells per well were plated on the Matrigel coated and pre-warmed 96-well plates. […] 100 μl of CellTiter-Glo® 3D reagent (Promega cat# G9682) was added to each well after desired time points and luminescence signal measured after 30 minutes.
(§2) Supplementary file pone.0248034.s010.tif: S6 Fig Schematic of Patient-derived organoids (PDO) growth & formation assays. […] After the indicated treatment schedule organoid growth or formation was assessed by CTG assay. […]

Data set [2] has as its system KP/C pancreatic tumors in C57Bl/6 mice. Put plainly: In vivo tumor growth suppression, KP/C mouse model.
Method: Pancreatic tumor chunks from KP/C mice [20] on C57Bl/6 background were inoculated subcutaneously in the flank of syngeneic mice. […] Tumor volumes and body weight were measured twice each week.
To test whether inhibition of RORγt can lead to tumor growth inhibition we utilized the Kras^G12D/+/Trp53^null/Pdx1-cre (KP/C) mouse model of pancreatic cancer [20]. C57Bl/6 mice were inoculated in the flank with KP/C tumor chunks and enrolled in the study when the average tumor volume reached 200 mm^3. […] To evaluate target engagement, we examined changes in expression of a subset of potential RORγt target genes in tumor samples.
Data set [3] is described as follows: Intra-tumoral compound concentration, KP/C mouse model. The settings on record: 16 hours post dosing, mean ± SD. The format is in vivo. How it is done:
In the IMQ-induced inflammation model, whole blood (300–500 μL) was collected and centrifuged (1000 g x 10 min) at 20° C to obtain plasma samples. […] Plasma standard curves were prepared by adding each test compound in to mouse plasma and serial diluting to desired concentration. Blank tumor homogenate and blank plasma was add to plasma standards and tumor homogenate samples, respectively, at 1:1 (v:v) ratio for matrix match of tumor sample analysis. An aliquot of 50 μL of each plasma sample, each tumor sample and each corresponding standards was added to 200 μL of acetonitrile with 100 ng/mL of carbutamide (Sigma Aldrich, St. Louis, MO), internal standard (IS), for protein precipitation, then filtered through a 96-well Orochem filtration plate (Orochem Technologies Inc., Naperville IL). Each extracted test compound in resultant supernatant was analyzed with appropriate liquid chromatography column eluting to a Sciex QTRAP 6500+ LC/MS/MS system (Applied Biosystems, Foster City, CA). Each analyte was characterized by Turbo IonSpray ionization multiple reaction monitoring (MRM). Quantitative drug concentrations were determined by standard calibration curve analysis, using linear fitting with 1/x^2 weighted plot of the analyte/IS peak area ratio vs analyte concentration. […]

The test system of data set [4] is RORγt target genes in KP/C tumor samples. In words: RORγt target gene expression in KP/C tumors (qPCR). It counts as in vivo, mouse. How it is done:
For RNA isolation & gene expression, ears are collected on day 4 in RNAlater (Qiagen) and stored at 4°C until processed. Ears were homogenized using Procellys 24 homogenizer & hard tissue homogenizing beads (Bertin Instruments), 2 cycles of 30 seconds @ 6000 rpm in RLT lysis buffer according to manufacturer’s instructions. RNA was isolated using RNAeasy Plus MiniPrep columns (Qiagen) and cDNA generated using SuperScript VILO cDNA Synthesis kit (Invitrogen). Gene expression was quantified using TaqMan Fast Master Mix & and TaqMan FAM-MGB probe sets (Applied Biosystems): Gapdh, Mm99999915_g1, Il17a, Mm00439618_m1, Il17f, Mm00521423_m1, Il22, Mm01226722_g1 & Bclxl, Mm00437783_m1. QPCR reactions were run on QuantStudio 7 instrument. Relative quantification and fold changes were calculated using ddCT values against Gapdh and normalized to control-treated animals. For PDAC xenografts, RNA was isolated from tumor sections using Qiagen RNeasy kit (cat#74106), then cDNA was prepared using 2 μg of RNA and the high capacity RNA to cDNA kit (Applied Biosystems, cat#4387406) as per manufacturer’s instructions. Biomarker expression was determined using Taqman gene expression probes (S1 Table) and Universal master mix (ThermoFisher Scientific cat#4305719) with expression levels normalized to Gapdh. […]

In data set [5] the test system is PDAC PDO model T031P. In words: In vitro organoid growth assay (CellTiter-Glo 3D), T031P. The format is cell-based, human. Particulars: 30 μM, 120 hours of treatment. How it is done: Patient derived organoids were established as previously described. Briefly, PDX tumor chunks were minced then enzymatically digested into single cells by using a tumor dissociation Kit (Miltenyi, Cat# 130-095-929). Mouse and human cells were separated through magnetic separation, and isolated tumor cells were cultured on Matrigel-coated dishes. […]
as §1, §2

With `O=C(O)[C@@H]1CCC(c2nn(C(=O)c3c(Cl)cccc3C(F)(F)F)c3cccc(F)c23)=C[C@H]1O` [Compound 3], the IC50 in data set [1] (120 hours) came out at 30 µM; in data set [1] (168 hours), 10 µM. Also, in data set [2] (Compound 3 30mg/kg BID plus gemcitabine vs gemcitabine), the “tumor volume, combination with gemcitabine” value is listed as “no additional benefit”. For the same compound, in data set [2] (single agent vs vehicle, 28 days of dosing), the tumor volume entry was “not statistically significant”. For the same compound, the results for the tumor concentration in data set [3] (in combination with gemcitabine) and in data set [3] (single agent) were 222 pmol/g and 47 pmol/g, respectively. In addition, in data set [4] (all treatment groups (alone or with gemcitabine)), the “Klf7 and Osmr expression in tumors” value was “decreased in all treatment groups”. The “Msi2 expression in tumors” value in data set [4] (combination of Compound 3 and gemcitabine) is reported as “significant decrease”. Moreover, the “decrease of organoid growth” value in data set [5] is ~ 30%.
